Results taken from US20090131431A1, “Pyrazolo[3,4-b]pyridine compounds, and their use as a PDE4 inhibitors” (priority 2005, published 2009).

Target: T1, PDE4B (human recombinant) (Homo sapiens, UniProt Q07343)
T1 construct: made in house
Test: Inhibition of PDE4B activity: SPA and/or Fluorescence Polarisation (FP) assay
Format: biochemical
Conditions: one reading (n=1) or average of 2 or more readings, read-out: PDE4B pIC50 (±about 0.5) (converted)
Protocol: The ability of compounds to inhibit catalytic activity at PDE4B or 4D (human recombinant), PDE3 (from bovine aorta), PDE5 (human recombinant) or PDE6 (from bovine retina) can optionally be determined by Scintillation Proximity Assay (SPA) in a 96-well format.
The enzyme concentration is adjusted so that no more than 20% hydrolysis of the substrate defined below occurs in control wells without compound, during the incubation. For the PDE3, PDE4B and PDE4D assays, [5′,8-3H]Adenosine 3′,5′-cyclic phosphate (Amersham Pharmacia Biotech, code TRK.559; or Amersham Biosciences UK Ltd, Pollards Wood, Chalfont St Giles, Buckinghamshire HP8 4SP, UK) is added to give 0.05 uCi per well and about 10 nM final concentration. […] Plates containing assay mixture, suitably approx. 100 ul volume of assay mixture, are mixed on an orbital shaker for 5 minutes and incubated at ambient temperature for 1 hour. Phosphodiesterase SPA beads (Amersham Pharmacia Biotech, code RPNQ 0150) are added (about 1 mg per well) to terminate the assay. Plates are sealed and shaken and allowed to stand at ambient temperature for 35 minutes to 1 hour (suitably 35 minutes) to allow the beads to settle. […] Curves are analysed using ActivityBase and XLfit (ID Business Solutions Limited, 2 Ocean Court, Surrey Research Park, Guildford, Surrey GU2 7QB, United Kingdom). Results are expressed as pIC50 values.
The ability of compounds to inhibit catalytic activity at PDE4B (human recombinant) or PDE4D (human recombinant) can optionally be determined by IMAP Fluorescence Polarisation (FP) assay (IMAP Explorer kit, available from Molecular Devices Corporation, Sunnydale, Calif., USA; Molecular Devices code: R8062) in 384-well format.
The IMAP FP assay is able to measure PDE activity in an homogenous, non-radioactive assay format. The FP assay uses the ability of immobilised trivalent metal cations, coated onto nanoparticles (tiny beads), to bind the phosphate group of Fl-AMP that is produced on the hydrolysis of fluorescein-labelled (Fl) cyclic adenosine mono-phosphate (Fl-cAMP) to the non-cyclic Fl-AMP form. […] Binding of Fl-AMP product to the beads (coated with the immobilised trivalent cations) slows the rotation of the bound Fl-AMP and leads to an increase in the fluorescence polarisation ratio of parallel to perpendicular light. Inhibition of the PDE reduces/inhibits this signal increase.
The enzyme level is set by experimentation so that reaction is linear throughout the incubation. Fluorescein adenosine 3′,5′-cyclic phosphate (from Molecular Devices Corporation, Molecular Devices code: R7091) is added to give about 40 nM final concentration (final assay volume usually ca. 20-40 ul, suitably ca. 20 ul). Plates are mixed on an orbital shaker for 10 seconds and incubated at ambient temperature for 40 minutes. IMAP binding reagent (as described above, from Molecular Devices Corporation, Molecular Devices code: R7207) is added (60 ul of a 1 in 400 dilution in binding buffer of the kit stock solution) to terminate the assay. Plates are allowed to stand at ambient temperature for 1 hour. The Fluorescence Polarisation (FP) ratio of parallel to perpendicular light is measured using an Analyst™ plate reader (from Molecular Devices Corporation). […] Curves are analysed using ActivityBase and XLfit (ID Business Solutions Limited, 2 Ocean Court, Surrey Research Park, Guildford, Surrey GU2 7QB, United Kingdom). Results are expressed as plC50 values.

T1 sequence (Q07343 1-564 isoform Q07343-2): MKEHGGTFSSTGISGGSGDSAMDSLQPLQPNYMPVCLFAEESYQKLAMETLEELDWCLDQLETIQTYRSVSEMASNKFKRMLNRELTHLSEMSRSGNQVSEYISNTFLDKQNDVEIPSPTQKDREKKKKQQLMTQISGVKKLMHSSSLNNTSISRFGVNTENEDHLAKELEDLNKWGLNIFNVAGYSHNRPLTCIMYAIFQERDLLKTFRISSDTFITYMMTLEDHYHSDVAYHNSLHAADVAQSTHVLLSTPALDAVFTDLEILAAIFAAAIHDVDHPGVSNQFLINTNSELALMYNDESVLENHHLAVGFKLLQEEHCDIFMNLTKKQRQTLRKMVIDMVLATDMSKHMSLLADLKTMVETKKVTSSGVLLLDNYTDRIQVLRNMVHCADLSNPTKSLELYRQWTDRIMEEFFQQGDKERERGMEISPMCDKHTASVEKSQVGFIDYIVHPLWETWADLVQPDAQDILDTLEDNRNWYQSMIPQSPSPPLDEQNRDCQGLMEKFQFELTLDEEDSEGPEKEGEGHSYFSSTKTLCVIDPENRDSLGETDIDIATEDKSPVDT

SMILES	IC50
CCc1nc2c(cnn2CC)c(NC2CCOCC2)c1CNC(=O)Nc1ccccc1 [Example 203, N-{[1,6-diethyl-4-(tetrahydro-2H-pyran-4-ylamino)-1H-pyrazolo[3,4-b]pyridin-5-yl]methyl}-N′-phenylurea]	0.126 to 1 nM
CCn1ncc2c(NC3CCOCC3)c(CNC(=O)c3cccc(N4CCCC4=O)c3)c(C)nc21 [Example 216, N-{[1-ethyl-6-methyl-4-(tetrahydro-2H-pyran-4-ylamino)-1H-pyrazolo[3,4-b]pyridin-5-yl]methyl}-3-(2-oxo-1-pyrrolidinyl)benzamide]	0.126 to 1 nM
CCc1nc2c(cnn2CC)c(NC2CCOCC2)c1CNC(=O)c1cncnc1 [Example 151, N-{[1,6-diethyl-4-(tetrahydro-2H-pyran-4-ylamino)-1H-pyrazolo[3,4-b]pyridin-5-yl]methyl}-5-pyrimidinecarboxamide]	0.126 to 1 nM
CCc1nc2c(cnn2CC)c(NC2CCOCC2)c1CNC(=O)c1ccc(N2CCCCC2)cc1 [Example 175, N-{[1,6-diethyl-4-(tetrahydro-2H-pyran-4-ylamino)-1H-pyrazolo[3,4-b]pyridin-5-yl]methyl}-4-(1-piperidinyl)benzamide]	0.01 to 0.1 nM
CCc1nc2c(cnn2CC)c(NC2CCOCC2)c1CNC(=O)c1ccc(C)cc1O [Example 254, N-{[1,6-diethyl-4-(tetrahydro-2H-pyran-4-ylamino)-1H-pyrazolo[3,4-b]pyridin-5-yl]methyl}-2-hydroxy-4-methylbenzamide]	0.01 to 0.1 nM
CCc1nc2c(cnn2CC)c(NC2CCOCC2)c1CNC(=O)c1ccsc1 [Example 235, N-{[1,6-diethyl-4-(tetrahydro-2H-pyran-4-ylamino)-1H-pyrazolo[3,4-b]pyridin-5-yl]methyl}-3-thiophenecarboxamide]	0.01 to 0.1 nM
CCc1nc2c(cnn2CC)c(NC2CCOCC2)c1CNC(=O)c1cccc2c1CCC2 [Example 189, N-{[1,6-diethyl-4-(tetrahydro-2H-pyran-4-ylamino)-1H-pyrazolo[3,4-b]pyridin-5-yl]methyl}-2,3-dihydro-1H-indene-4-carboxamide]	0.126 to 1 nM
CCc1nc2c(cnn2CC)c(NC2CCOCC2)c1CN1Cc2occc2C1=O [Example 198, 5-{[1,6-diethyl-4-(tetrahydro-2H-pyran-4-ylamino)-1H-pyrazolo[3,4-b]pyridin-5-yl]methyl}-5,6-dihydro-4H-furo[2,3-c]pyrrol-4-one]	0.126 to 1 nM
CCc1nc2c(cnn2CC)c(NC2CCOCC2)c1CNC(=O)c1ccoc1 [Example 154, N-{[1,6-diethyl-4-(tetrahydro-2H-pyran-4-ylamino)-1H-pyrazolo[3,4-b]pyridin-5-yl]methyl}-3-furancarboxamide]	0.126 to 1 nM
CCn1ncc2c(NC3CCN(C(N)=O)CC3)c(CNC(=O)c3ccc(NC(C)=O)cc3O)c(C)nc21 [Example 261, 4-({5-[({[4-(acetylamino)-2-hydroxyphenyl]carbonyl}amino)methyl]-1-ethyl-6-methyl-1H-pyrazolo[3,4-b]pyridin-4-yl}amino)-1-piperidinecarboxamide]	0.01 to 0.1 nM
CCc1nc2c(cnn2CC)c(NC2CCN(C(N)=O)CC2)c1CNC(=O)c1ccc2c(=O)[nH][nH]c2c1 [Example 248, N-[(4-{[1-(aminocarbonyl)-4-piperidinyl]amino}-1,6-diethyl-1H-pyrazolo[3,4-b]pyridin-5-yl)methyl]-3-oxo-2,3-dihydro-1H-indazole-6-carboxamide]	0.01 to 0.1 nM

Second part, the molecule after the results:

IC50	SMILES
0.126 to 1 nM	CCc1nc2c(cnn2CC)c(NC2CCOCC2)c1CNC(=O)c1ccc(F)cc1F [Example 308, N-{[1,6-diethyl-4-(tetrahydro-2H-pyran-4-ylamino)-1H-pyrazolo[3,4-b]pyridin-5-yl]methyl}-2,4-difluorobenzamide]
0.01 to 0.1 nM	CCn1ncc2c(NC3CCN(C(N)=O)CC3)c(CNC(=O)c3ccc4c(c3)CCC4)c(C)nc21 [Example 271, 4-[(5-{[(2,3-dihydro-1H-inden-5-ylcarbonyl)amino]methyl}-1-ethyl-6-methyl-1H-pyrazolo[3,4-b]pyridin-4-yl)amino]-1-piperidinecarboxamide]
0.01 to 0.1 nM	CCn1ncc2c(NC3CCOCC3)c(CN3Cc4ccc(C(F)(F)F)cc4C3=O)c(C)nc21 [Example 316, 2-{[1-ethyl-6-methyl-4-(tetrahydro-2H-pyran-4-ylamino)-1H-pyrazolo[3,4-b]pyridin-5-yl]methyl}-6-(trifluoromethyl)-2,3-dihydro-1H-isoindol-1-one]
0.01 to 0.1 nM	CCc1nc2c(cnn2CC)c(NC2CCOCC2)c1CNC(=O)c1ccc(NC(C)=O)c2c1OCC2 [Example 306, 4-(acetylamino)-N-{[1,6-diethyl-4-(tetrahydro-2H-pyran-4-ylamino)-1H-pyrazolo[3,4-b]pyridin-5-yl]methyl}-2,3-dihydro-1-benzofuran-7-carboxamide]
0.01 to 0.1 nM	CCn1ncc2c(NC3CCN(C(N)=O)CC3)c(CNC(=O)c3ccc(C)cc3O)c(C)nc21 [Example 265, 4-{[1-ethyl-5-({[(2-hydroxy-4-methylphenyl)carbonyl]amino}methyl)-6-methyl-1H-pyrazolo[3,4-b]pyridin-4-yl]amino}-1-piperidinecarboxamide]
0.126 to 1 nM	CCn1ncc2c(NC3CCOCC3)c(CN3Cc4ccccc4C3=O)c(C)nc21 [Example 300, 2-{[1-ethyl-6-methyl-4-(tetrahydro-2H-pyran-4-ylamino)-1H-pyrazolo[3,4-b]pyridin-5-yl]methyl}-2,3-dihydro-1H-isoindol-1-one]
0.126 to 1 nM	CCn1ncc2c(NC3CCOCC3)c(CNC(=O)c3csc(C(F)(F)F)n3)c(C)nc21 [Example 319, N-{[1-ethyl-6-methyl-4-(tetrahydro-2H-pyran-4-ylamino)-1H-pyrazolo[3,4-b]pyridin-5-yl]methyl}-2-(trifluoromethyl)-1,3-thiazole-4-carboxamide]
0.01 to 0.1 nM	CCc1nc2c(cnn2CC)c(NC2CCOCC2)c1CN1Cc2ccc(C(F)(F)F)cc2C1=O [Example 317, 2-{[1,6-diethyl-4-(tetrahydro-2H-pyran-4-ylamino)-1H-pyrazolo[3,4-b]pyridin-5-yl]methyl}-6-(trifluoromethyl)-2,3-dihydro-1H-isoindol-1-one]
0.126 to 1 nM	CCn1ncc2c(NC3CCOCC3)c(CN3Cc4ccc(F)cc4C3=O)c(C)nc21 [Example 314, 2-{[1-ethyl-6-methyl-4-(tetrahydro-2H-pyran-4-ylamino)-1H-pyrazolo[3,4-b]pyridin-5-yl]methyl}-6-fluoro-2,3-dihydro-1H-isoindol-1-one]
0.126 to 1 nM	CCc1nc2c(cnn2CC)c(NC2CCOCC2)c1CNC(=O)C1CCN(S(C)(=O)=O)CC1 [Example 341, N-{[1,6-diethyl-4-(tetrahydro-2H-pyran-4-ylamino)-1H-pyrazolo[3,4-b]pyridin-5-yl]methyl}-1-(methylsulfonyl)-4-piperidinecarboxamide]
0.126 to 1 nM	CCc1nc2c(cnn2CC)c(NC2CCOCC2)c1CNC(=O)c1cnc(C)nc1 [Example 331, N-{[1,6-diethyl-4-(tetrahydro-2H-pyran-4-ylamino)-1H-pyrazolo[3,4-b]pyridin-5-yl]methyl}-2-methyl-5-pyrimidinecarboxamide]
0.126 to 1 nM	CCn1ncc2c(NC3CCOCC3)c(CNC(=O)c3ccc(C(=O)NC)cc3)c(C)nc21 [Example 283, N-{[1-ethyl-6-methyl-4-(tetrahydro-2H-pyran-4-ylamino)-1H-pyrazolo[3,4-b]pyridin-5-yl]methyl}-N′-methyl-1,4-benzenedicarboxamide]
0.01 to 0.1 nM	CCn1ncc2c(NC3CCOCC3)c(CNC(=O)c3ccc(N4CCCC4=O)cc3)c(C)nc21 [Example 288, N-{[1-ethyl-6-methyl-4-(tetrahydro-2H-pyran-4-ylamino)-1H-pyrazolo[3,4-b]pyridin-5-yl]methyl}-4-(2-oxo-1-pyrrolidinyl)benzamide]
